Assay results: ChEMBL document CHEMBL1201862, “PubChem BioAssay data set” (2004)
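Dose response: 5 concentrations. Exposure: 48 h. Format: 96-well plates. Endpoint: linear interpolation; highest concentration if not reached. Here, GI50 denotes the concentration required for 50% inhibition of growth.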 Activity calls are given as the source filed them. Cut-off read from the data, not from the text of the source: active = GI50 up to about 1.1 µM and inactive = higher.

What was measured:
Assay in all cases: NCI-60 cell line screen, 48 h
A498 = system: A498
A549 = system: A549
HOP-92 = system: HOP-92
HT-29 = system: HT-29
K562 = system: K562
KM12 = system: KM12
MOLT-4 = system: MOLT-4
OVCAR-4 = system: OVCAR-4
OVCAR-5 = system: OVCAR-5
RXF 393 = system: RXF 393
SF-268 = system: SF-268
SK-MEL-28 = system: SK-MEL-28
SK-MEL-2 = system: SK-MEL-2
SK-OV-3 = system: SK-OV-3
UO-31 = system: UO-31

Measured: GI50

C=C=C(C(=O)OC)[S+]([O-])c1ccc([N+](=O)[O-])cc1[N+](=O)[O-] (stereo not given)
inactive: A498 > 100 µM | A549 52.7 µM | HOP-92 18.6 µM | HT-29 26.1 µM | K562 20 µM | KM12 33.7 µM | MOLT-4 20.7 µM | OVCAR-4 35.6 µM | OVCAR-5 > 82.4 µM | RXF 393 30.7 µM | SF-268 39 µM | SK-MEL-28 34.7 µM | SK-MEL-2 44.5 µM | SK-OV-3 > 84.7 µM | UO-31 43.4 µM

Cc1cc([N+](=O)[O-])c(S(=O)(=O)c2ccccc2)c([N+](=O)[O-])c1
inactive: A498 18.2 µM | A549 23.6 µM | HOP-92 2.43 µM | HT-29 7.85 µM | K562 4.08 µM | KM12 17.1 µM | MOLT-4 3.39 µM | OVCAR-4 7.83 µM | OVCAR-5 18.6 µM | RXF 393 2.2 µM | SF-268 13.2 µM | SK-MEL-28 18.9 µM | SK-MEL-2 20 µM | SK-OV-3 24.8 µM | UO-31 16.9 µM

CN(C)CCNC(=O)c1cccc2c1nc(-c1ccccn1)c1ccccc12
inactive: A498 13.6 µM | A549 11.8 µM | HOP-92 18.6 µM | HT-29 16.3 µM | K562 16.9 µM | KM12 28.3 µM | MOLT-4 3.87 µM | OVCAR-4 17.3 µM | OVCAR-5 14.8 µM | RXF 393 14.6 µM | SF-268 23.3 µM | SK-MEL-28 15.6 µM | SK-MEL-2 18.8 µM | SK-OV-3 17.4 µM | UO-31 10.4 µM

COc1cc(Br)c(/C=N/N=C(\N)NO)cc1OC
inactive: A498 32.8 µM | A549 10.4 µM | HOP-92 23.6 µM | HT-29 15 µM | K562 15.7 µM | KM12 15.5 µM | MOLT-4 57.1 µM | OVCAR-4 54.5 µM | OVCAR-5 21.8 µM | RXF 393 21.9 µM | SF-268 8.87 µM | SK-MEL-28 17.5 µM | SK-MEL-2 26.1 µM | SK-OV-3 10.6 µM | UO-31 20.3 µM

[O-][S+]1CSCS1 (stereo not given)
inactive: A498 > 100 µM | A549 > 100 µM | HOP-92 > 100 µM | HT-29 > 100 µM | K562 > 100 µM | KM12 > 100 µM | MOLT-4 > 100 µM | OVCAR-4 > 100 µM | OVCAR-5 > 100 µM | RXF 393 > 100 µM | SF-268 > 100 µM | SK-MEL-28 > 100 µM | SK-MEL-2 > 100 µM | SK-OV-3 > 100 µM | UO-31 > 100 µM
